Experimental findings from PubChem BioAssay (NCI) are described below.

Each structure is given as a SMILES string.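 Growth conditions: 96-well plates. Treatment: test compound, 48 hours, 5 concentrations. Analysis: linear interpolation between bracketing concentrations; unreached endpoints set to highest concentration. Definition used: TGI = concentration required for complete inhibition of growth.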 Where only a bound is given, the exact number is not on record here.

Assay in all cases: NCI anticancer screen, dose series, 48 h
In assay [1] the test system is SK-MEL-2 melanoma.
Assay [2] deals with HCC-2998 colon.
Assay [3] concerns HOP-62 NSCLC.
The subject of assay [4] is SF-268 CNS.
The test system of assay [5] is NCI-H460 lung.
For assay [6], the system named is ACHN renal.
The subject of assay [7] is SK-OV-3 ovarian.
For assay [8], the system named is HOP-92 NSCLC.
The test system of assay [9] is MCF7 breast.
For assay [10], the system named is U251 CNS.

With `NS(=O)(=O)c1cc2c(cc1Cl)NC(C(=O)NNC(=O)c1ccncc1)=NS2(=O)=O`, the TGI in assay [1], in assay [2], in assay [3], in [4], in [5] and in [6] was greater than 100 µM throughout. Further, the TGI in assay [7] and in [8] was greater than 100 µM in each case.
`CC(=O)Oc1cc(OC(C)=O)c2c(c1C)CC[C@@H]1[C@@H]2CC[C@]2(C)[C@@H](OC(C)=O)CC[C@@H]12`: the TGI in assay [2] was 36.6 µM; in assay [3], 36 µM; in assay [4], 39.3 µM; in assay [5] it was 34.1 µM; in assay [6] it was 31.2 µM; in [9], 34.1 µM. For the same compound, the TGI in assay [10] is 31.9 µM; in assay [8], 35.2 µM.
On to `COc1ccc(N=C(SSC(=Nc2ccc(OC)cc2)c2ccc([N+](=O)[O-])o2)c2ccc([N+](=O)[O-])o2)cc1`, for which the TGI in [1] is 4.73 µM; in assay [2], 3.26 µM; in assay [3], 6.41 µM; in assay [4], 5.4 µM; in [5], greater than 24.3 µM; in [6], 4.1 µM. The TGI in [7] is 11.1 µM; in assay [10], 1.62 µM; in [8], 6.7 µM.
Consider `NS(=O)(=O)C1CCCCC1C(=O)NNC(=O)C(=O)Nc1nc(=S)[nH][nH]1` (stereo unspecified), for which the TGI in assay [1], in [2], in assay [3], in assay [4], in [5] and in assay [6] was greater than 100 µM in each case. The TGI in [7], in assay [10] and in assay [8] was greater than 100 µM in each case.
On to `CCOC(=O)c1sc2nc(SC)nc3c2c1NCN3c1ccccc1Cl`, for which the TGI in assay [1], in [2], in assay [3], in assay [4], in assay [5] and in [6] was greater than 100 µM in each case. Further, the TGI was greater than 100 µM in [7], greater than 100 µM in assay [10] and 57.6 µM in assay [8].
On to `CCOC(=O)c1c(SCCN(CC)CC)n(-c2ccccc2)c(=S)n(-c2ccccc2)c1=O`, for which the TGI in assay [1] was determined as 30.1 µM; in [2], 3.46 µM; in [3], 32.6 µM; in [4] it was 9.9 µM; in assay [5] it was 15.6 µM; in assay [6], 3.2 µM. Besides, the TGI turned out to be 40.2 µM in [7], 29.6 µM in assay [10] and 4.15 µM in assay [8].
Consider `CCc1n[nH]c(=O)n1-c1ccncc1`, for which the TGI in assay [2], in [3], in [4], in [5], in [6] and in [9] was greater than 100 µM each time. In addition, the TGI in assay [10] and in [8] was greater than 100 µM in each case.
In the case of `Nn1c(=S)[nH]nc(/C=C/c2c(O)ccc3ccccc23)c1=O`, the TGI in assay [1] is greater than 100 µM; in assay [2], 54.5 µM; in [3], 62.8 µM; in assay [4], 38.6 µM; in assay [5], 76.5 µM; in assay [6], 51.7 µM. The TGI in assay [7] is 95.4 µM; in assay [9] it was 12.6 µM; in assay [10], greater than 100 µM.
Regarding `Nc1nc2c(ccc3ccccc32)[nH]1`, the TGI in assay [1], in [2], in assay [3], in [4], in assay [5] and in assay [6] was greater than 10 µM throughout. Moreover, the TGI in [7], in assay [9] and in assay [10] was greater than 10 µM throughout.
In the case of `N/N=C(\N)SCc1ccc(N=C=S)cc1`, the TGI in [1], in [2], in assay [3], in assay [4], in [5] and in [6] was greater than 100 µM each time. The TGI in assay [7], in assay [10] and in assay [8] was greater than 100 µM each time.
With `Cn1c(=O)c(C#N)c(O)c2cc3ccccc3nc21`, the TGI in [1], in [2], in assay [4], in [5], in assay [6] and in assay [7] was greater than 100 µM each time. Moreover, the TGI in assay [10] and in assay [8] was greater than 100 µM in each case.
With `COc1cc(O)c2c(=O)c(O)c(-c3ccc(O)c(O)c3)oc2c1`, the TGI in assay [2] was 34.1 µM; in assay [3], 63.2 µM; in assay [4] it was 73.7 µM; in assay [5] it was 20.6 µM; in assay [6], 24.9 µM; in assay [7], 56.9 µM. Besides, the TGI in [9] came out at 60.7 µM; in [10] it was 24.7 µM; in assay [8], 45.1 µM.
Take `Cc1c(N(Cc2ccccc2)Cc2ccccc2)nc(S(C)(=O)=O)nc1S(C)(=O)=O`: the TGI worked out at 30.6 µM in [1]; 3.2 µM in assay [2]; 28 µM in assay [3]; 3.74 µM in assay [4]; 22.1 µM in assay [5]; 16.4 µM in assay [6]. For the same compound, the values for the TGI in assay [7], in assay [10] and in assay [8] were 27.7 µM, 6.64 µM and 8.4 µM, respectively.
Regarding `COc1c(-c2nc3nc(N4CCN(C)CC4)ccc3[nH]2)cc(OC)c2c1nc(CCl)n2C`, the TGI was found to be 29.3 µM in [1]; 31.2 µM in [2]; 49.1 µM in [3]; 55.7 µM in assay [4]; 52.8 µM in assay [5]; 26.9 µM in [6]. The TGI in [7] was 76.6 µM; in assay [10], 25.8 µM; in assay [8], 41.9 µM.
With `COc1cc(CC2C(=O)OCC2Cc2ccc(OC)c(OC)c2)ccc1O` (stereo unspecified), the TGI in [1], in [3], in assay [4], in assay [5], in assay [6] and in [7] was greater than 100 µM in each case. Besides, the TGI in assay [9], in assay [10] and in assay [8] was greater than 100 µM throughout.
